From patent US20250360116A1, “PICOLINIC-2-CARBOXAMIDE HYBRIDIZED WITH ANTHRAQUINONE DERIVATIVES, METHODS OF PREPARATION, AND A PHARMACEUTICAL COMPOSITION COMPRISING THE SAME” (AL-ZAYTOONAH UNIVERSITY OF JORDAN, priority 2023, published 2025) come the findings set out here.

Marks after values point to notes of the source that are not given here.

The test system of this experiment is Triton WR-1339 induced hyperlipidemic Wistar Rats. Nature of the experiment: Plasma lipid levels in triton WR-1339 induced hyperlipidemia in rats. It counts as in vivo. Particulars: for HDL-C (plasma) / LDL-C (plasma) / TC (plasma) / TG (plasma): 20 mg/kg intragastric after triton WR-1339 200 mg/Kg i.p., about 6 hours, mean ± SEM, five rats; for Effect on elevated TC levels / Effect on elevated plasma LDL-C levels / Effect on elevated plasma TG levels / Effect on plasma HDL-C levels: in words, in comparison with HCG, 20 mg/kg intragastric, 6 hours. As for the experimental part:
The study was conducted on twenty-five adult male Wistar Rats weighting 200±10 g. Wistar Rats were bred in the animal care center of Faculty of Pharmacy in Al-Zaytoonah University of Jordan. The animals were kept on 12 hours' light/dark cycle, at room temperature (25±1° C.) with free access to food and water. The rats were divided randomly into five groups each consist of five rats, whereby Group I was the normal control group (“NCG”) that received an intraperitoneal administration of normal saline, Group II was the hyperlipidemic control group (“HCG”) that received an intraperitoneal injection of about 200 mg/Kg triton WR-1339 dissolved in about 4% dimethylsulfoxide (“DMSO”)/corn oil, Groups (III, IV, V) rats received intraperitoneal injection of about 200 mg/Kg triton WR-1339.
After about 6 hours of treatment, the rats were anaesthetized with diethyl ether and blood was collected. The blood samples were immediately centrifuged at about 3000 rpm for about 10 minutes and the serum was used for lipid profile measurements (TG, LDL-C, TC and HDL-C) by an automated chemistry analyzer (Model Erba XL-300, Mannheim, Germany). Furthermore, liver samples were collected, and then kept in liquid nitrogen, and stored at (−80° C.) for the mRNA extraction as described in Example 5 below.
The plasma of TG, TC, LDL-C and HDL-C levels in HCG treated at 6 hours after administration of triton WR-1339 are shown in FIG. 2.
After the injection of Wistar Rats with Triton WR-1339 in Example 3, Groups III, IV, V received an intragastric administration of (20 mg/kg by weight) of compounds C1, C2 and C3, respectively, dissolved in about 4% DMSO/corn oil. FIGS. 3, 4, 5, 6 illustrate bar charts showing the effect of the compounds C1, C2, and C3 on the Triton WR-1339 induced hyperlipidemic Wistar Rats after about 6 hours of treatment on TG, TC, LDL-C, and HDL-C.

With `O=C(Nc1ccc(O)c2c1C(=O)c1ccccc1C2=O)c1ccccn1` [Compound C3, N-(4-hydroxy-9,10-dioxo-9,10-dihydroanthracen-1-yl) picolinamide], the “HDL-C (plasma)” value was 22 ± 2 mg/dL, the “LDL-C (plasma)” value was 11 ±1.2 ^ mg/dl, the “TC (plasma)” value was 122 ± 11 mg/dL and the “TG (plasma)” value amounted to 1375 ± 23 mg/dL. For the same compound, the “Effect on elevated TC levels” value was “non-significant effect”, the “Effect on elevated plasma LDL-C levels” value is given as “non-significant effect”, the “Effect on elevated plasma TG levels” value is “non-significant effect” and the “Effect on plasma HDL-C levels” value is “non-significant effect”.

In the case of `O=C(Nc1cccc2c1C(=O)c1ccccc1C2=O)c1ccccn1` [Compound C1, N-(9,10-dioxo-9,10-dihydroanthracen-1-yl) picolinamide], the “HDL-C (plasma)” value is reported as 56 ± 4.6 ^b mg/dl, the “LDL-C (plasma)” value is given as 6 ± 0.7 ^b mg/dl, the “TC (plasma)” value was 42 ± 10 ^b mg/dl and the “TG (plasma)” value is 145 ± 14.2 ^b mg/dl. Further, the “Effect on elevated TC levels” value was “significantly decreased”, the “Effect on elevated plasma LDL-C levels” value was “significantly lowered”, the “Effect on elevated plasma TG levels” value is “significantly decreased” and the “Effect on plasma HDL-C levels” value was “significantly increased”.

Consider `O=C(Nc1ccc2c(c1)C(=O)c1ccccc1C2=O)c1ccccn1` [Compound C2, N-(9,10-dioxo-9,10-dihydroanthracen-2-yl) picolinamide], for which the “HDL-C (plasma)” value is on record as 38 ± 4.4 ^a mg/dl, the “LDL-C (plasma)” value was 9 ± 0.6 ^a mg/dl, the “TC (plasma)” value is reported as 75 ± 15.2 ^a mg/dl and the “TG (plasma)” value is 985 ± 15.3 ^a mg/dl. Further, the “Effect on elevated TC levels” value is “significantly decreased”, the “Effect on elevated plasma LDL-C levels” value is given as “significantly lowered”, the “Effect on elevated plasma TG levels” value is on record as “significantly decreased” and the “Effect on plasma HDL-C levels” value is listed as “significantly increased”.
